From patent publication US12440496B2, “Natriuretic peptide receptor a agonists useful for the treatment of cardiometabolic diseases, kidney disease and diabetes” (Merck Sharp & Dohme LLC, priority 2019, dated 2025)

Target: T1, hNPRA (Homo sapiens, UniProt P16066)
T1 construct: expressed in transfected cells
T1 sequence (P16066 33-1061): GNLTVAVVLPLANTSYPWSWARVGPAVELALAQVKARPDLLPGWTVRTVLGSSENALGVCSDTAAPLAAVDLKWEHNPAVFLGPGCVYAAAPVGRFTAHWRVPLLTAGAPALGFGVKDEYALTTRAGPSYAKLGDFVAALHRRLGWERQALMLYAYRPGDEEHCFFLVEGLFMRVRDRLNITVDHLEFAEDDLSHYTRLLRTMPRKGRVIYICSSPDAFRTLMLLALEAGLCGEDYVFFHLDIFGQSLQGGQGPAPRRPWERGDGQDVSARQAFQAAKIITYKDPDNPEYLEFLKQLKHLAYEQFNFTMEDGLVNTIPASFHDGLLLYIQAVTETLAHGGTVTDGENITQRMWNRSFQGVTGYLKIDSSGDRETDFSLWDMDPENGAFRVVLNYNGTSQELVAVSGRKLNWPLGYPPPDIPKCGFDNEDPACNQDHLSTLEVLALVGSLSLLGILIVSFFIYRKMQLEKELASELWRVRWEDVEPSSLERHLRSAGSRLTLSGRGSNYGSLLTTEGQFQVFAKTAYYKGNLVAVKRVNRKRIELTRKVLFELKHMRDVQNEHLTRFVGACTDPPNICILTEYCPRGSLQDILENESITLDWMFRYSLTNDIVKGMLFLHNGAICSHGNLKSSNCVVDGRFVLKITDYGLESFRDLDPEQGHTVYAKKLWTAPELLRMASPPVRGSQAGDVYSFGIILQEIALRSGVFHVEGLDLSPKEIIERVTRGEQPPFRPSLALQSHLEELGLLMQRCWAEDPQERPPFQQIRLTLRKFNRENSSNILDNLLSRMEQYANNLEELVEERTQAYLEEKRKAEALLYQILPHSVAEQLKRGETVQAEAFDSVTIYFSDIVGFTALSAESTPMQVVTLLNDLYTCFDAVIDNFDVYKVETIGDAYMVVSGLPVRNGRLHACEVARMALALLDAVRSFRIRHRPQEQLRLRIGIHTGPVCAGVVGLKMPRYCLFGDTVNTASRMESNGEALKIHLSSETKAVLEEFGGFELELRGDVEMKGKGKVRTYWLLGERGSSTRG
Assay: NPRA Functional Cell Assay (cGMP HTRF, NPRA HEK JumpIn stable cells)
Format: cell-based
Settings: cGMP production, 1 hour at 37° C., 10-point dose response
Summary of the method: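 cGMP HTRF read-out after 1 hour compound treatment at 37° C. of human NPRA-expressing HEK JumpIn cells, 1500 cells/well, in buffer with phosphodiesterase inhibitors IBMX and RO20 (100 uM each). Signal converted to [cGMP] by calibration curve; EC50s fitted by 4-parameter logistic; 50 nM h-ANP as positive response.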

SMILES | EC50 [nM]
CC(C)(C)[C@H]1CCc2nc3sc(C(=O)N[C@H](CCN[C@H]4CCCC(F)(F)[C@@H]4O)c4cccc(NS(C)(=O)=O)c4)cc3cc2C1 (racemic) [Example 24, ammonium; methylsulfony 1-[3-[rac-(1R)-1-[[rac-(6S)-6-tert-buty1-5,6,7,8-tetrahydrothieno[2,3-b]quinoline-2-carbonyl]amino]-3-[[rac-(1S,2R)-3,3-difluoro-2-hydroxy-cyclohexyl]amino]propyl]phenyl]azanide] | 1970
CC(C)(C)[C@H]1CCc2nc3sc(C(=O)N[C@H](CCN4CC(c5ccccn5)C4)c4cccc(NS(C)(=O)=O)c4)cc3cc2C1 (racemic) [Example 22, ammonium; methylsulfonyl-[3-[rac-(1R)-3-[3-(2-pyridyl)azetidin-1-y1]-1-[[rac-(6S)-6-tert-butyl-5,6,7,8-tetrahydrothieno[2,3-b]quinoline-2-carbonyl]amino]propyl]phenyl] azanide] | 1790
CC(C)(C)[C@H]1CCc2nc3sc(C(=O)N[C@H](CCNC4CCNC4=O)c4ccc(-c5ccc(=O)[nH]c5)cc4)cc3cc2C1 (mixture of isomers) [Example 67, (2-oxopyrrolidin-3-yl)-[rac-(3R)-3-[4-(6-oxo-1H-pyridin-3-yl)phenyl]-3-[rac-(6S)-6-tert-butyl-5,6,7,8-tetrahydrothieno[2,3-b]quinoline-2-carbonyl]amino]propyl] ammonium;formate] | 1800
CC(C)(C)[C@H]1CCc2nc3sc(C(=O)N[C@H](CCN4CCC(O)CC4)c4cccc(C(=O)NC5CNC5)c4)nc3cc2C1 (racemic) [Example 136, rac-(7S)-7-tert-butyl-N-[rac-(1R)-1-[3-(azetidin-3-ylcarbamoyl)phenyl]-3-(4-hydroxy-1-piperidyl)propyl]-5,6,7,8-tetrahydrothiazolo[5,4-b]quinoline-2-carboxamide] | 138

Second part, the molecule after the results:

EC50 [nM] | SMILES
773 | CC(C)(C)[C@H]1CCc2nc3sc(C(=O)N[C@H](CCN4CCC(O)CC4)c4ccc(-c5ccnc(N)c5)cc4)nc3cc2C1 (racemic) [Example 168, rac-(7S)-7-tert-butyl-N-[rac-(1R)-1-[4-(2-amino-4-pyridyl)phenyl]-3-(4-hydroxy-1-piperidyl)propyl]-5,6,7,8-tetrahydrothiazolo[5,4-b]quinoline-2-carboxamide]
787 | CC(C)(C)[C@H]1CCc2nc3sc(C(=O)N[C@H](CCN4CCC(O)CC4)c4ccc(OCC(N)=O)nc4)nc3cc2C1 (racemic) [Example 193, rac-(7S)-7-tert-butyl-N-[rac-(1R)-1-[6-(2-amino-2-oxo-ethoxy)-3-pyridyl]-3-(4-hydroxy-1-piperidyl)propyl]-5,6,7,8-tetrahydrothiazolo[5,4-b]quinoline-2-carboxamide]
462 | CN1C(=O)OCC12CN(C(=O)c1cccc([C@@H](CCN3CCC(O)CC3)NC(=O)c3nc4cc5c(nc4s3)CC[C@H](C(C)(C)C)C5)c1)C2 (racemic) [Example 144, rac-(7S)-7-tert-butyl-N-[rac-(1R)-3-(4-hydroxy-1-piperidyl)-1-[3-(5-methyl-6-oxo-7-oxa-2,5-diazaspiro[3.4]octane-2-carbonyl)phenyl]propyl]-5,6,7,8-tetrahydrothiazolo[5,4-b]quinoline-2-carboxamide]
113 | CC1([C@H]2CCc3nc4sc(C(=O)N[C@H](CCN5CCC(O)CC5)c5ccc(-c6ccnnc6)nc5)nc4cc3C2)CC1 [Example 264, (S)-N-((R)-3-(4-hydroxypiperidin-1-yl)-1-(6-(pyridazin-4-yl)pyridin-3-yl)propyl)-7-(1-methylcyclopropyl)-5,6,7,8-tetrahydrothiazolo[5,4-b]quinoline-2-carboxamide]
303 | CC(C)(C)[C@H]1CCc2nc3sc(C(=O)N[C@H](CCN4CCC(O)CC4)c4ccc(-c5cn[nH]c5)nc4)nc3cc2C1 (racemic) [Example 196, rac-(7S)-7-tert-butyl-N-[rac-(1R)-3-(4-hydroxy-1-piperidyl)-1-[6-(1H-pyrazol-4-yl)-3-pyridyl]propyl]-5,6,7,8-tetrahydrothiazolo[5,4-b]quinoline-2-carboxamide]
